Test results as given in patent publication EP4692072A1, “PHOTOCHROMIC COMPOUND, PROPARGYL ALCOHOL COMPOUND, CURABLE COMPOSITION, OPTICAL ARTICLE, LENS, AND SPECTACLES” (TOKUYAMA CORPORATION, priority 2023, dated 2024).

Experiment: Photochromic properties of photochromic laminate (plastic lens) prepared by coating method
Assay type: physicochemical
Details: 40 µm photochromic layer on thiourethane lens, 0.25 mmol compound per 100 g monomers, after color development
From the text: First, the photochromic compound obtained in Example 1, a photoinitiator, and a polymerizable compound were mixed to obtain a curable composition.
Polyethylene glycol dimethacrylate (average molecular weight: 736): 42 parts by mass • Polyethylene glycol dimethacrylate (average molecular weight: 536): 12 parts by mass • Trimethylolpropane trimethacrylate: 38 parts by mass γ-methacryloyloxypropyl trimethoxysilane: 2 parts by mass Glycidyl methacrylate: 1 part by mass
Note that the photochromic compound was added to the curable composition so that the amount of the photochromic compound was 0.25 mmol based on 100 g of the total amount of the radical-polymerizable monomers.
Phenylbis(2,4,6-trimethylbenzoyl)phosphine oxide (photoinitiator: Omnirad 819): 0.3 parts by mass Ethylene bis(oxyethylene) bis[3-(5-tert-butyl-4-hydroxy-m-tolyl)propionate] (stabilizer, Irganox 245): 1 part by mass Bis(1,2,2,6,6-pentamethyl-4-piperidyl) sebacate: 3 parts by mass Leveling agent (L7001) manufactured by Dow Corning Toray Co.,Ltd.: 0.1 part by mass
First, a thiourethane-based plastic lens having a central thickness of 2 mm and a refractive index of 1.60 was prepared as the optical substrate. Note that this thiourethane-based plastic lens was pre-treated by alkaline etching with a 10% sodium hydroxide aqueous solution at 50°C for 5 minutes, followed by sufficient washing with distilled water.
A surface of the above-described plastic lens was coated with a moisture-curable primer (product name: TR-SC-P, manufactured by Tokuyama Corporation) at a rotation frequency of 70 rpm for 15 seconds, followed by 1000 rpm for 10 seconds, using a spin coater (1H-DX2, manufactured by MIKASA CO., LTD), Subsequently, about 2 g of the photochromic curable composition obtained above was spin-coated at a rotation frequency of 60 rpm for 40 seconds, followed by 600 rpm for 10 to 20 seconds, to form a photochromic coating layer with a film thickness of 40 µm.
The lens with the surface coated with the photochromic curable composition (photochromic coating layer) was irradiated with light using a metal halide lamp with an output power of 200 mW/cm^2 in a nitrogen gas atmosphere for 90 seconds to cure the coating film. Subsequently, the lens was further heated at 110°C for 1 hour to prepare a photochromic laminate having a photochromic layer.
In the same manner as in Example 26, photochromic laminates were prepared using the photochromic compounds obtained in Examples 2 to 25.
• [1] Maximum Absorption Wavelength (λmax): The maximum absorption wavelength after color development, measured using a spectrophotometer (instantaneous multichannel photodetector MCPD3000) manufactured by Otsuka Electronics Co., Ltd. was used as an indicator for the color tone during the color development. • [2] 23°C Color Optical Density (A23): A difference between an absorbancy measured after light irradiation at 23°C for 300 seconds {ε(300)} and an absorbancy without light irradiation ε(0) at the maximum absorption wavelength was used as an indicator for the color optical density. […] 23°C color fading half-life [τ1/2 (sec.)]: A time required for the absorbancy of the sample at the maximum absorption wavelength to decrease to 1/2 of {ε(300)-ε(0)} when the light irradiation was terminated after the light irradiation at 23°C for 300 seconds, was used as an indicator for the color fading speed. The shorter this time, the higher the color fading speed. • [4] Residual rate (A120/A0×100): The obtained photochromic plastic lens was subjected to accelerated deterioration using a xenon weather meter X25 manufactured by Suga Test Instruments Co., Ltd. for 120 hours. Subsequently, the color optical density was evaluated before and after the test, then a color optical density before the test (A0) and a color optical density after the test (A120) were measured, and a ratio (A120/A0) was defined as a residual rate. The residual rate was used as an indicator for a color developing durability. […]

| Structure (SMILES) | Maximum absorption wavelength | also measured |
| --- | --- | --- |
| CCN(c1ccc(OC)cc1)c1ccc(C2(c3ccc(OC)cc3)C=Cc3c4c(c5cc(-c6ccc(N7CCOCC7)cc6)c(OC)cc5c3O2)-c2ccccc2C4(C)C)cc1 (centres unmarked) [Example 25] | 505 nm | Maximum absorption wavelength (listed as Formula (88)): 605 nm |
| CCC1(CC)CCC2(CC1)c1cc(OC(F)(F)F)ccc1-c1c2c2c(c3cc(OC)ccc13)OC(c1ccc(N(C)c3ccccc3)cc1)(c1ccc(OC)c(C)c1)C=C2 (centres unmarked) [Example 16] | 472 nm | Maximum absorption wavelength (listed as Formula (77)): 584 nm |
| COc1ccc(C2(c3ccc(N(C)c4ccccc4)cc3)C=Cc3c4c(c5cc(-c6ccc(N7CCOCC7)cc6)c(OC)cc5c3O2)-c2ccccc2C4(C)C)cc1 (centres unmarked) [Example 1] | 502 nm | Maximum absorption wavelength (listed as Formula (37)): 601 nm |
| CCCC1(CCC)c2ccccc2-c2c1c1c(c3cc(OC)c(-c4ccc(N(C)c5ccccc5)cc4)cc23)OC(c2ccc(C)cc2)(c2ccc(N(C)c3ccccc3)cc2)C=C1 (centres unmarked) [Example 24] | 504 nm | Maximum absorption wavelength (listed as Formula (86)): 599 nm |
| COCCCCC1(CCCCOC)c2ccccc2-c2c1c1c(c3cc(-c4ccc(OC)cc4OC)c(OC)cc23)OC(c2ccc(N(C)c3ccccc3)cc2)(c2ccc3c(c2)CCO3)C=C1 (centres unmarked) [Example 62] | 477 nm | Maximum absorption wavelength (listed as Formula (124)): 587 nm |
| COCCN(c1ccccc1)c1ccc(C2(c3ccc4c(c3)OCCO4)C=Cc3c4c(c5cc6c(cc5c3O2)SC(C)(C)O6)-c2ccccc2C42CCC3(CCCCC3)CC2)cc1 (centres unmarked) [Example 14] | 492 nm | Maximum absorption wavelength (listed as Formula (72)): 586 nm |
| COCCCCC1(CCCCOC)c2cc(Sc3c(C)cccc3C)ccc2-c2c1c1c(c3cc(OC)ccc23)OC(c2ccc(OC)cc2)(c2ccc(N(C)c3ccc(OC)cc3)cc2)C=C1 (centres unmarked) [Example 11] | 477 nm | Maximum absorption wavelength (listed as Formula (65)): 614 nm |
| CCCCOCCC1(CCOCCCC)c2ccccc2-c2c1c1c(c3cc(OC)c(NC(=O)c4ccccc4)cc23)OC(c2ccc(N(C)c3ccccc3)cc2)(c2ccc(OC)c(F)c2)C=C1 (centres unmarked) [Example 53] | 500 nm | Maximum absorption wavelength (listed as Formula (95)): 605 nm |
| COCCC1(CCOC)c2ccccc2-c2c1c1c(c3cc(OC)c(-c4ccc(N(c5ccccc5)c5ccccc5)cc4)cc23)OC(c2ccc(Oc3ccccc3)cc2)(c2ccc(N(C)c3ccccc3)cc2)C=C1 (centres unmarked) [Example 23] | 506 nm | Maximum absorption wavelength (listed as Formula (85)): 609 nm |
| CCCC1(CCC)c2cc(OC)ccc2-c2c1c1c(c3cc(OC)ccc23)OC(c2ccc(OC)cc2)(c2ccc(N(C)c3ccccc3)cc2)C=C1 (centres unmarked) [Example 3] | 470 nm | Maximum absorption wavelength (listed as Formula (46)): 612 nm |
| CCCCC1(CCCC)c2cc(-c3ccc(OC(C)C)cc3)ccc2-c2c1c1c(c3cc(OC)ccc23)OC(c2ccc(N(C)c3ccccc3)cc2)(c2ccc(OC)c(F)c2)C=C1 (centres unmarked) [Example 21] | 489 nm | Maximum absorption wavelength (listed as Formula (83)): 609 nm |
| COc1ccc(N(C)c2ccc(C3(c4ccc(CCO[Si](C)(C)CC[Si](O[Si](C)(C)C)(O[Si](C)(C)C)O[Si](C)(C)C)cc4)C=Cc4c5c(c6cc(N(C)c7ccccc7)c(OC)cc6c4O3)-c3ccc(C(F)(F)F)cc3C53CCC(C)(C)CC3)cc2)cc1 (centres unmarked) [Example 60] | 523 nm | Maximum absorption wavelength (listed as Formula (121)): 582 nm |
| COCCOCCOCCOCCC1(CCOCCOCCOCCOC)c2cc(C(F)(F)F)ccc2-c2c1c1c(c3cc(OC)c(OC)cc23)OC(c2ccc(OC)cc2)(c2ccc(N(C)c3ccccc3)cc2)C=C1 (centres unmarked) [Example 51] | 482 nm | Maximum absorption wavelength (listed as Formula (89)): 603 nm |
| CCCC1(CCC)c2ccccc2-c2c1c1c(c3cc(OC)c(-c4ccc(OC)cc4OC)cc23)OC(c2ccc(C)cc2)(c2ccc(N(C)c3ccccc3)cc2)C=C1 (centres unmarked) [Example 19] | 494 nm | Maximum absorption wavelength (listed as Formula (80)): 604 nm |
| CCCC1(CCC)c2ccccc2-c2c1c1c(c3cc(OC)c(-c4ccc(OC)cc4OC)cc23)OC(c2ccc(N(C)c3ccccc3)cc2)(c2ccc(OC)c(F)c2)C=C1 (centres unmarked) [Example 7] | 496 nm | Maximum absorption wavelength (listed as Formula (55)): 603 nm |
| CCCc1ccc(C2(c3ccc(N(C)c4ccccc4)cc3)C=Cc3c4c(c5cc(Sc6c(C)cccc6C)c(OC)cc5c3O2)-c2ccccc2C42CC(C)(C)CC(C)(C)C2)cc1 (centres unmarked) [Example 5] | 509 nm | Maximum absorption wavelength (listed as Formula (51)): 591 nm |
| COCCOCCC1(CCOCCOC)c2cc(C)ccc2-c2c1c1c(c3cc(C)ccc23)OC(c2ccc(N(C)c3ccc(F)cc3)cc2)(c2ccc(OC)c(OC)c2)C=C1 (centres unmarked) [Example 8] | 474 nm | Maximum absorption wavelength (listed as Formula (57)): 597 nm |
| CCCC1(CCC)c2cc(OC(F)(F)F)ccc2-c2c1c1c(c3cc(OC)c(Sc4c(C)cccc4C)cc23)OC(c2ccc(N(C)c3ccccc3)cc2)(c2ccc(OC)c(OC)c2)C=C1 (centres unmarked) [Example 57] | 493 nm | Maximum absorption wavelength (listed as Formula (110)): 615 nm |
| CCCCN(c1ccccc1)c1ccc(C2(c3ccc(C)cc3)C=Cc3c4c(c5cc(N6CCOCC6)c(OC)cc5c3O2)-c2ccccc2C4(CC)CC)cc1 (centres unmarked) [Example 10] | 512 nm | Maximum absorption wavelength (listed as Formula (62)): 598 nm |
